Test results published in patent US9976141B2, “Compositions and methods for inhibiting gene expression of Hif2alpha” (Arrowhead Madison Inc., priority 2015, dated 2018).
Strand notation (5' to 3'): a small letter for the sugar, then the base; units joined by * are phosphorothioate-linked, units joined directly phosphodiester-linked; [ ] holds rarer units or linkages, { } end groups; capitals alone tell only the bases. d = 2'-deoxy (DNA); m = 2'-O-methyl; f = 2'-fluoro

System: human EPAS1 (Hif2α) cDNA in psiCHECK2 (Renilla luciferase/EPAS1 fusion mRNA) in Hep3B cells
Assay: Efficacy screen of Hif2α RNAi triggers in vitro, dual-luciferase reporter assay (1 nM and 0.1 nM)
Type: cell-based
Settings: Hep3B cells co-transfected with EPAS1-psiCHECK2, Renilla luciferase normalized to firefly luciferase
In short: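 Hep3B cells (10,000/well) co-transfected with chemically modified siRNA triggers at 1 nM and 0.1 nM plus 25 ng EPAS1-psiCHECK2 plasmid via LipoFectamine 2000. Knockdown measured as Renilla luciferase from the EPAS1 fusion mRNA, normalized to constitutive firefly luciferase by dual-luciferase assay.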

Substance	Relative Rluc-Hif2α (0.1 nM RNAi trigger)	Relative Rluc-Hif2α (1 nM RNAi trigger)
2377 (sense fUmGfGmUfCmUfUmUfCmAfCmAfCmGfGmCfAmCfAdT; antisense dTfGmUfGmCfCmGfUmGfUmGfAmAfAmGfAmCfCmAdT*dT; siRNA) [compound 2377]	0.900 ± 0.189	0.958 ± 0.189
2378 (sense fAmAfCmUfAmCfCmAfUmGfAmGfAmUfGmGfUmUfAdT; antisense dTfAmAfCmCfAmUfCmUfCmAfUmGfGmUfAmGfUmUdT*dT; siRNA) [compound 2378]	0.994 ± 0.246	0.734 ± 0.170
2379 (sense fUmAfCmCfAmUfGmAfGmAfUmGfGmUfUmUfAmGfAdT; antisense dTfCmUfAmAfAmCfCmAfUmCfUmCfAmUfGmGfUmAdT*dT; siRNA) [compound 2379]	0.858 ± 0.098	0.939 ± 0.204
2380 (sense fCmCfAmAfGmCfUmCfAmCfGmAfCmCfUmUfGmGfAdT; antisense dTfCmCfAmAfGmGfUmCfGmUfGmAfGmCfUmUfGmGdT*dT; siRNA) [compound 2380]	1.128 ± 0.285	1.722 ± 0.101
2381 (sense fAmCfGmAfCmCfUmUfGmGfAmGfCmCfCmCfGmUfAdT; antisense dTfAmCfGmGfGmGfCmUfCmCfAmAfGmGfUmCfGmUdT*dT; siRNA) [compound 2381]	0.756 ± 0.109	1.063 ± 0.191
2382 (sense fGmGfGmUfAmAfGmAfGmGfGmAfCmGfAmCfAmCfAdT; antisense dTfGmUfGmUfCmGfUmCfCmCfUmCfUmUfAmCfCmCdT*dT; siRNA) [compound 2382]	1.070 ± 0.064	1.151 ± 0.365
2383 (sense fGmGfUmAfAmGfAmGfGmGfAmCfGmAfCmAfCmCfAdT; antisense dTfGmGfUmGfUmCfGmUfCmCfCmUfCmUfUmAfCmCdT*dT; siRNA) [compound 2383]	0.833 ± 0.082	1.060 ± 0.292
2384 (sense fGmUfAmAfGmAfGmGfGmAfCmGfAmCfAmCfCmUfAdT; antisense dTfAmGfGmUfGmUfCmGfUmCfCmCfUmCfUmUfAmCdT*dT; siRNA) [compound 2384]	0.533 ± 0.067	0.439 ± 0.101
2385 (sense fUmGfGmUfUmUfUmUfCmAfAmUfAmCfCmAfAmUfAdT; antisense dTfAmUfUmGfGmUfAmUfUmGfAmAfAmAfAmCfCmAdT*dT; siRNA) [compound 2385]	0.701 ± 0.178	0.515 ± 0.089
2386 (sense fUmUfCmAfAmUfAmCfCmAfAmUfUmAfCmAfUmGfAdT; antisense dTfCmAfUmGfUmAfAmUfUmGfGmUfAmUfUmGfAmAdT*dT; siRNA) [compound 2386]	0.603 ± 0.032	0.274 ± 0.087
2387 (sense fAmUfAmCfCmAfAmUfUmAfCmAfUmGfGmAfAmCfAdT; antisense dTfGmUfUmCfCmAfUmGfUmAfAmUfUmGfGmUfAmUdT*dT; siRNA) [compound 2387]	0.436 ± 0.028	0.201 ± 0.063
2388 (sense fCmCfAmAfCmUfAmUfUmUfAmGfUmAfAmGfCmCfAdT; antisense dTfGmGfCmUfUmAfCmUfAmAfAmUfAmGfUmUfGmGdT*dT; siRNA) [compound 2388]	0.901 ± 0.318	0.436 ± 0.021
2389 (sense fAmAfCmUfAmUfUmUfAmGfUmAfAmGfCmCfCmGfAdT; antisense dTfCmGfGmGfCmUfUmAfCmUfAmAfAmUfAmGfUmUdT*dT; siRNA) [compound 2389]	1.085 ± 0.307	0.820 ± 0.184
2390 (sense fAmCfUmAfUmUfUmAfGmUfAmAfGmCfCmCfGmGfAdT; antisense dTfCmCfGmGfGmCfUmUfAmCfUmAfAmAfUmAfGmUdT*dT; siRNA) [compound 2390]	0.772 ± 0.175	0.568 ± 0.108
2391 (sense fAmGfAmAfAmUfUmCfCmUfUmAfGmUfCmAfUmGfAdT; antisense dTfCmAfUmGfAmCfUmAfAmGfGmAfAmUfUmUfCmUdT*dT; siRNA) [compound 2391]	0.273 ± 0.006	0.129 ± 0.015
2392 (sense fCmAfUmUfAmAfGmGfGmCfAmUfUmUfUmAfCmCfAdT; antisense dTfGmGfUmAfAmAfAmUfGmCfCmCfUmUfAmAfUmGdT*dT; siRNA) [compound 2392]	0.636 ± 0.039	0.283 ± 0.052
2393 (sense fUmAfAmGfGmGfCmAfUmUfUmUfAmCfCmCfUmUfAdT; antisense dTfAmAfGmGfGmUfAmAfAmAfUmGfCmCfCmUfUmAdT*dT; siRNA) [compound 2393]	0.862 ± 0.388	1.049 ± 0.089
2394 (sense fAmGfCmUfUmCfAmUfAmUfUmAfAmCfCmCfUmAfAdT; antisense dTfUmAfGmGfGmUfUmAfAmUfAmUfGmAfAmGfCmUdT*dT; siRNA) [compound 2394]	0.533 ± 0.076	0.254 ± 0.026

Substance	Relative Rluc-Hif2α (0.1 nM RNAi trigger)	Relative Rluc-Hif2α (1 nM RNAi trigger)
2395 (sense fUmAfUmUfAmAfCmCfCmUfAmCfCmUfGmUfCmAfAdT; antisense dTfUmGfAmCfAmGfGmUfAmGfGmGfUmUfAmAfUmAdT*dT; siRNA) [compound 2395]	0.494 ± 0.104	0.218 ± 0.029
2396 (sense fUmUfAmAfCmCfCmUfAmCfCmUfGmUfCmAfAmCfAdT; antisense dTfGmUfUmGfAmCfAmGfGmUfAmGfGmGfUmUfAmAdT*dT; siRNA) [compound 2396]	1.321 ± 0.070	0.939 ± 0.299
2397 (sense fAmCfCmCfUmAfCmCfUmGfUmCfAmAfCmGfUmAfAdT; antisense dTfUmAfCmGfUmUfGmAfCmAfGmGfUmAfGmGfGmUdT*dT; siRNA) [compound 2397]	0.254 ± 0.048	0.119 ± 0.024
2398 (sense fCmCfCmUfAmCfCmUfGmUfCmAfAmCfGmUfAmAfAdT; antisense dTfUmUfAmCfGmUfUmGfAmCfAmGfGmUfAmGfGmGdT*dT; siRNA) [compound 2398]	1.047 ± 0.047	0.534 ± 0.043
2399 (sense fCmCfUmAfCmCfUmGfUmCfAmAfCmGfUmAfAmCfAdT; antisense dTfGmUfUmAfCmGfUmUfGmAfCmAfGmGfUmAfGmGdT*dT; siRNA) [compound 2399]	0.784 ± 0.071	0.418 ± 0.081
2400 (sense fCmUfAmCfCmUfGmUfCmAfAmCfGmUfAmAfCmGfAdT; antisense dTfCmGfUmUfAmCfGmUfUmGfAmCfAmGfGmUfAmGdT*dT; siRNA) [compound 2400]	0.478 ± 0.028	0.165 ± 0.020
2401 (sense fUmAfCmCfUmGfUmCfAmAfCmGfUmAfAmCfGmAfAdT; antisense dTfUmCfGmUfUmAfCmGfUmUfGmAfCmAfGmGfUmAdT*dT; siRNA) [compound 2401]	0.375 ± 0.062	0.174 ± 0.003
2402 (sense fAmCfCmUfGmUfCmAfAmCfGmUfAmAfCmGfAmUfAdT; antisense dTfAmUfCmGfUmUfAmCfGmUfUmGfAmCfAmGfGmUdT*dT; siRNA) [compound 2402]	0.389 ± 0.060	0.128 ± 0.015
2403 (sense fCmCfUmGfUmCfAmAfCmGfUmAfAmCfGmAfUmUfAdT; antisense dTfAmAfUmCfGmUfUmAfCmGfUmUfGmAfCmAfGmGdT*dT; siRNA) [compound 2403]	0.930 ± 0.132	0.568 ± 0.106
2404 (sense fCmUfGmUfCmAfAmCfGmUfAmAfCmGfAmUfUmUfAdT; antisense dTfAmAfAmUfCmGfUmUfAmCfGmUfUmGfAmCfAmGdT*dT; siRNA) [compound 2404]	0.234 ± 0.045	0.104 ± 0.019
2405 (sense fUmGfUmCfAmAfCmGfUmAfAmCfGmAfUmUfUmCfAdT; antisense dTfGmAfAmAfUmCfGmUfUmAfCmGfUmUfGmAfCmAdT*dT; siRNA) [compound 2405]	0.261 ± 0.044	0.138 ± 0.035
2406 (sense fUmCfAmAfCmGfUmAfAmCfGmAfUmUfUmCfAmUfAdT; antisense dTfAmUfGmAfAmAfUmCfGmUfUmAfCmGfUmUfGmAdT*dT; siRNA) [compound 2406]	0.241 ± 0.022	0.168 ± 0.044
2407 (sense fAmCfGmUfAmAfCmGfAmUfUmUfCmAfUmGfAmAfAdT; antisense dTfUmUfCmAfUmGfAmAfAmUfCmGfUmUfAmCfGmUdT*dT; siRNA) [compound 2407]	0.222 ± 0.027	0.124 ± 0.021
2408 (sense fUmAfUmUfAmUfAmUfUmGfUmCfGmAfAmUfUmCfAdT; antisense dTfGmAfAmUfUmCfGmAfCmAfAmUfAmUfAmAfUmAdT*dT; siRNA) [compound 2408]	0.730 ± 0.045	0.282 ± 0.004
2409 (sense fUmUfAmUfAmUfUmGfUmCfGmAfAmUfUmCfCmUfAdT; antisense dTfAmGfGmAfAmUfUmCfGmAfCmAfAmUfAmUfAmAdT*dT; siRNA) [compound 2409]	0.301 ± 0.085	0.104 ± 0.020
2410 (sense fUmAfUmUfGmUfCmGfAmAfUmUfCmCfUmAfCmUfAdT; antisense dTfAmGfUmAfGmGfAmAfUmUfCmGfAmCfAmAfUmAdT*dT; siRNA) [compound 2410]	0.228 ± 0.033	0.154 ± 0.022
2411 (sense fGmAfAmUfUmCfCmUfAmCfUmGfAmCfAmAfCmAfAdT; antisense dTfUmGfUmUfGmUfCmAfGmUfAmGfGmAfAmUfUmCdT*dT; siRNA) [compound 2411]	0.796 ± 0.110	0.410 ± 0.083
